This note sets out measurements from patent publication US20010002251A1, “Intracellular sensitizers for sonodynamic therapy” (Pharmacyclics, Inc., priority 1998, published 2001).

Data set [1] concerns murine leukemia L1210 cells. In words: Amino acid (cytoleucine) transport after ultrasound in L1210 cells. The format is cell-based. The note with it: 6 μM sensitizer, 15 min loading at 37° C., only intracellular texaphyrin; ultrasound 1.94 MHz, 3.9 W/cm^2. As to the method: (§1) The effect of low-level, non-thermal ultrasound on the murine leukemia L1210 cell line in culture, measuring ultrasound-induced cytotoxicity is determined by a modification of the procedure initially described by Kessel et al., 1994. Int. J. Radiat. Biol., 66 (1994). Sonodynamic therapy with and without a texaphyrin and with and without low intensity irradiation of ultrasound. A murine 1210 cell line was used, The cytotoxicity of low-intensity ultrasound on murine leukemia L1210 cells is associated with cell fragmentation, and was detected by measuring the inhibition of the active transport of a non-metabolized amino acid (cytoleucine) and by a viability assay.
(§2) Cell Culture Systems—Murine leukemia L1210 cells were grown in Fischer's medium (GIBCO, Grand Island, N.Y.) supplemented with glutamine, 10% horse serum and gentamicin. All operations were carried out at 37° C. […]
Amino Acid Transport—The effect of ultrasound on the capacity of L1210 cells for concentrative accumulation of the non-metabolized amino-acid cytoleucine was assesed as a probe for damage to membrane […] systems. […] After 15 minutes, the cells were collected by centrifugation, washed with isotonic NaCl and cell radioactivity determined by liquid scintillation counting. […]

Data set [2] deals with murine leukemia L1210 cells. In words: Cell fragmentation after ultrasound (Coulter particle size distribution). The class given is cell-based. The note with it: 6 μM sensitizer, 15 min loading at 37° C., only intracellular texaphyrin; ultrasound 1.94 MHz, 3.9 W/cm^2. As to the method: as §1, §2
Fragmentation and Viability Studies—Cell counts and the particle size distribution were determined with a Coulter Electronics ZM Particle Analyzer and Model 256 Channelyzer. The Channelyzer determines the mean particle volume; intact cells were detected in channels 80-110. […] Cell counts were again determined after incubation for sufficient time to allow the number of control (untreated) cells to reach 20,000/ml, approximately 5 doublings.

For data set [3], the system named is murine leukemia L1210 cells. In words: Viability (growth) assay after ultrasound. The format is cell-based. Conditions: for Viability: 6 μM sensitizer, 15 min loading at 37° C., only intracellular texaphyrin, ultrasound 1.94 MHz, 3.9 W/cm^2; for potentiation of the cytotoxic effect of ultrasound: cells previously exposed to 6 μM, ultrasound at 3.9 W/cm. The protocol:
as §1
Cell Culture Systems—Murine leukemia L1210 cells were grown in Fischer's medium (GIBCO, Grand Island, N.Y.) supplemented with glutamine, 10% horse serum and gentamicin. All operations were carried out at 37° C. Exponentially growing cells were collected by centrifugation, resuspended (5×10^6 cells/ml) in serum-free Fischer's medium buffered to pH 7.0 with 20 mM HEPES.
Sensitizers—Lutetium Texaphyrin (Lu-Tex or PCI-0123) and Gadolinium Texaphyrin (Gd-Tex or PCI-0120) were dissolved in water at a concentration of 6 μM.
Test Groups—Four groups of cells were established: Control A (no sensitizer and no ultrasound), Control B (no sensitizer, with ultrasound); 6 μM Lu-Tex with ultrasound, and 6 μM Gd-Tex with ultrasound. A small volume of the respective sensitizers were added to the Lu-Tex and Gd-Tex groups followed by a loading incubation of 15 minutes at 37° C. The cells were then suspended in fresh (serum free) medium, such that only intracellular texaphyrin remained.
Ultrasound—Exposure of cell suspensions (except Control A) to ultrasound was carried out in 2.5 cm diameter petri dishes in a bath of degassed water. A 2.54-cm-diameter transducer (Valpey-Fisher) was driven by a power amplifier (ENI 240L) with a continuous wave 1.94 MHz sinusoidal signal source (Wavetek Model 23). The acoustic field was calibrated with a Marconi PVDF membrane hydrophone in a free field condition 3.0 cm from the surface of the transducer which is also the distance from the face to the exposure dish. The acoustic intensity, expressed in terms of the spatial peak temporal average (SPTA), was 3.9 W/cm^2.
Fragmentation and Viability Studies—Cell counts and the particle size distribution were determined with a Coulter Electronics ZM Particle Analyzer and Model 256 Channelyzer. The Channelyzer determines the mean particle volume; intact cells were detected in channels 80-110. Smaler particles represent debris resulting from cell fragmentation. […] Cell counts were again determined after incubation for sufficient time to allow the number of control (untreated) cells to reach 20,000/ml, approximately 5 doublings.

Data set [4] relates to Colon 26 tumor cells. The data set is described as follows: Experimental kidney tumor assay of sonodynamic sensitizing activity. The class given is in vivo, mouse. Conditions: 1.0 mg/kg i.v., ultrasound 24 hours later, 5 minutes, 0.5 and 1 MHz, 8 W/cm^2; sacrifice after 7 days. As to the method: In vivo activity for sonodynamic therapy is determined, e.g., by post-mortum histological examination of tumor tissue by hematoxylin and eosin, as described in Yumita et al., Cancer Letters 112 (1997). The antitumor effects of sonodynamic therapy are evaluated by implanting tumor cells into one kidney in a mouse (the other kidney remaining untreatd and serving as a control). Approximately 24 hours after intravenous administration of a sonodynamic sensitizer to be tested, the mouse is anesthesized and the tumorous kidney exteriorized. The position and the angle of the mouse are adjusted to facilitate ultrasound ultrasound penetration of the entire kidney, with the tumor at the focal spot. Ultrasound is delivered in continuous waves by a focused array transducer, the kidney is returned to the abdominal cavity and the abdomen is closed. After 7 days the mouse is sacrificed and the kidneys stained with hematoxylin and eosin for histologic examination. The tumor bearing and control kidneys are compared.
This procedure is a modification of a procedure initially described by Yumita et al., Cancer Letters 112 (1997).
Colon 26 tumor cells are implanted into one kidney in a male CDF mouse (the other kidney remaining untreated and serving as a control). After 14 days, 1.0 mg/kg of a texaphyrin is administered by intravenous injection. 24 Hours later, the mouse is anesthetized and the tumorous kidney exteriorized. The position and the angle of the mouse are adjusted to facilitate ultrasound ultrasound penetration of the entire kidney, with the tumor at the focal spot. Ultrasound is delivered in continuous waves by a focused array transducer. The tumor is exposed to focused ultrasound for 5 minutes in a progressive wave mode, at a frequency of 0.5 MHz for the first wave and 1 MHz for the second wave, at an intensity of 8 W/cm^2 followed by the second-harmonic superimposition of ultrasound at the same intensity, for a total exposure of 5 minutes. The kidney is returned to the abdominal cavity and the abdomen is closed. […]

Data set [5] is described as follows: Maximum tolerated dose study. The note with it: determined in one study; intravenous injection. The format is in vivo. The protocol:
For example, Lutetium Texaphyrin is administered in solution containing 2 mg/ml optionally in 5% mannitol, USP. Dosages of about 1.0 or 2.0 mg/kg to about 4.0 or 5.0 mg/kg, preferably 3.0 mg/kg may be employed, up to a maximum tolerated dose that was determined in one study to be 5.2 mg/kg. The texaphyrin is administered by intravenous injection, followed by a waiting period of from as little as several minutes or about 3 hours to as long as about 72 or 96 hours (depending on the treatment being effected) to facilitate intracellular uptake and clearance from the plasma and extracellular matrix prior to the administration of the sonodynamic agent. The co-administration of a sedative (e.g., benzodiazapenes) and narcotic analgesic are sometimes recommended prior to topical (as opposed to intravascular) light treatment. Topical administration. of Emla cream (lidocaine, 2.5% and prilocaine, 2.5%) under an occlusive dressing and other intradermal, subcutaneous and topical anesthetics may also be employed as necessary to reduce discomfort. Similar patient comfort considerations may apply in sonodynamic therapy, as will be apparent to the treating physician. Subsequent treatments can be provided after suitable time interval, currently approximately 21 days. […]

Turning to `CC(=O)[O-].CC(=O)[O-].CCc1c(CC)c2cc3nc(cnc4cc(OCCOCCOCCOC)c(OCCOCCOCCOC)cc4ncc4nc(cc1[n-]2)C(CCCO)=C4C)C(C)=C3CCCO.O.[Gd+3]` [Gd-Tex, Gadolinium Texaphyrin], the “Amount of Cytoleucene Transported” value in data set [1] amounted to 3.2 ± 0.4. Moreover, in data set [2], the Fragmentation was found to be 64 ± 4. In data set [3], the Viability is 42 ± 5 and the “potentiation of the cytotoxic effect of ultrasound” value is recorded as “substantial potentiation”. Moreover, the “comparison of tumor-bearing and control kidneys (histologic examination)” value (“comparison … (histologic examination)” for short) in data set [4] is listed as “substantially the same”.
Take `CC(=O)[O-].CC(=O)[O-].CCc1c(CC)c2cc3nc(cnc4cc(OCCOCCOCCOC)c(OCCOCCOCCOC)cc4ncc4nc(cc1[n-]2)C(CCCO)=C4C)C(C)=C3CCCO.O.[Lu+3]` [Lu-Tex, Lutetium Texaphyrin]: in data set [1], the “Amount of Cytoleucene Transported” value is 2.8 ± 0.3. In data set [2], the Fragmentation is 73 ± 6. In data set [3], the Viability amounted to 24 ± 3 and the “potentiation of the cytotoxic effect of ultrasound” value is recorded as “substantial potentiation”. Also, the maximum tolerated dose in data set [5] is given as 5.2 mg/kg. The “comparison … (histologic examination)” value in data set [4] is “substantially the same”.
As for yttrium texaphyrin, the “comparison … (histologic examination)” value in data set [4] is given as “substantially the same”.
